From patent publication US6545029B2, “Phenylserine derivatives as integrin antagonists” (Bayer Aktiengesellschaft, priority 2000, dated 2003)

Molecular target: T1, αvβ3 from human placenta (Homo sapiens, UniProt P05106+P06756)
T1 construct: αvβ3 from human placenta; from tissue; host or cells: human placenta
Assay: αvβ3/echistatin binding inhibition (I125-echistatin, scintillation proximity beads)
Settings: inhibition of I125-echistatin binding to αvβ3; 1 hour at room temperature; determined in duplicate from concentration series
Experimental: The substances were tested for their ability to inhibit αvβ3/echistatin binding analogously to Kumar C. C., Nie H. M., Rogers G. P., Malkowski M., Maxwell E., Catino J. J. and Armstrong L. (Journal of Pharmacology and Experimental Therapeutics 283(2)(1997)843-853).
αvβ3 from human placenta (Smith J. W. and Cheresh, D. A. (1988), J. Biol. Chem. 263, 18726-18732) (1 mg/ml 50 mM tris HCl pH 7.4, 100 mM NaCl, 2 mM CaCl2, 1% and octylglucoside) was diluted with test buffer (50 mM tris-HCl pH 7.4, 100 mM NaCl, 1 mM CaCl2, 1 mM MgCl2, 1 mM MnCl2, 0.1% bovine serum albumin) and 55 μl each of this αvβ3 solution were added to the wells of a 96-well microtiter plate (about 0.1-0.3 μg of αvβ3 per well). 2 μl of the substances to be tested dissolved in DMSO were then added. 10 μl (40,000 cpm) of I^125-echistatin per well were then added and the mixture was incubated for 1 hour at room temperature with careful shaking. It was then treated with 100 μg of wheatgerm-coated yttrium silicate beads (Amersham, type RPNQ0011) in 25 μl of distilled water. After 1 hour at room temperature, the cpm values were measured in a scintillation counter. The Ki values were determined in duplicate from concentration series. The nonspecific binding was determined in the presence of 0.1 μM unlabeled echistatin or by addition of 5 mM EDTA to the binding mixture.

T1 sequence (P06756 31-889 limits assumed): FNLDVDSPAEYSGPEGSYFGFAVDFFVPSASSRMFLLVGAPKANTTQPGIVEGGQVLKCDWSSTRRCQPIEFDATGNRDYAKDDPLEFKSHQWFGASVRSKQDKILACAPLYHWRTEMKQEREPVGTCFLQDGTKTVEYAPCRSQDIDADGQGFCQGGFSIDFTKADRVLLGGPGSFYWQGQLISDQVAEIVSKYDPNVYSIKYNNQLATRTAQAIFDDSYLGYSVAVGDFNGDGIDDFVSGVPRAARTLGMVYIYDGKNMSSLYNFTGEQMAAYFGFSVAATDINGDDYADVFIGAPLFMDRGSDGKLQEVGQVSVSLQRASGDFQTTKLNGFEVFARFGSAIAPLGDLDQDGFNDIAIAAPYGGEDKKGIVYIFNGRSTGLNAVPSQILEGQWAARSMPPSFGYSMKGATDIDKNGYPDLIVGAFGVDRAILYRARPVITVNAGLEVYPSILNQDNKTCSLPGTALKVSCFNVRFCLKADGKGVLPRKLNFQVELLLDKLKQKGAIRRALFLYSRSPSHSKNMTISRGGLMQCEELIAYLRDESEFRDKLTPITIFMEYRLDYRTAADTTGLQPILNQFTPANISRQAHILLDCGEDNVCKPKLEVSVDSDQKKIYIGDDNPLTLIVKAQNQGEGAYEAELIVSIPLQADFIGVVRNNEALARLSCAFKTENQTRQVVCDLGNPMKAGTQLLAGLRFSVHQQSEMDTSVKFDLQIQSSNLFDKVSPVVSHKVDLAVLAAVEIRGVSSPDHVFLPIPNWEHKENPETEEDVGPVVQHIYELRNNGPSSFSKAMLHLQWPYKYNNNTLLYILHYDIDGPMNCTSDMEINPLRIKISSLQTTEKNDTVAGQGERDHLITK
T1 sequence (P06756 891-1048 partner limits assumed): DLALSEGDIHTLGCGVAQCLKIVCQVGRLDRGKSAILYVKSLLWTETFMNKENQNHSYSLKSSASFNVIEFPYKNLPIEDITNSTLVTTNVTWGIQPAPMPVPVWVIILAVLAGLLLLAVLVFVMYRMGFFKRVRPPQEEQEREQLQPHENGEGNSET
T1 sequence (P05106 27-788): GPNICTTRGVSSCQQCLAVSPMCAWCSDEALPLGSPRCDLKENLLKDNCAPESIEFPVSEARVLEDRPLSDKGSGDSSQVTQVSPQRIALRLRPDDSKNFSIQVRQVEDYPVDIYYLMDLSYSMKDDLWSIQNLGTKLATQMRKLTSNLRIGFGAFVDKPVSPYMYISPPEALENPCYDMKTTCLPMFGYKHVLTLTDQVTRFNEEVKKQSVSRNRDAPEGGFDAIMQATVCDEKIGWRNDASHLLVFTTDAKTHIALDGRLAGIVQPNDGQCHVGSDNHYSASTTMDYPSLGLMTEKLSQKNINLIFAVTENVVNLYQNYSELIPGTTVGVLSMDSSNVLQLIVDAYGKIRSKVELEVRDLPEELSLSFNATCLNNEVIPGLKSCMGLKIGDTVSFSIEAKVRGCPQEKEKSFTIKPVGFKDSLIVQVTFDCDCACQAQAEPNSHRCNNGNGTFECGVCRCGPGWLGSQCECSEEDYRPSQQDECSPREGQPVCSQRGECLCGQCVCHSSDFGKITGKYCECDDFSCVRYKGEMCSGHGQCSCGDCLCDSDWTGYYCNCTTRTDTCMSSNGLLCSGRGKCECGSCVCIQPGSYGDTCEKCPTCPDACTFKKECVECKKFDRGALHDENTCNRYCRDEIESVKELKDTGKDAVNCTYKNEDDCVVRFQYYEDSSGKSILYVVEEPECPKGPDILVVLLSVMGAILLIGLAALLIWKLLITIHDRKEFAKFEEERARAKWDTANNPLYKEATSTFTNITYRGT

Ki: 4 nM
Structure (SMILES): CCCNC(=O)Nc1cccc(-c2ccc(OC[C@H](NS(=O)(=O)c3c(C)cc(C)cc3C)C(=O)O)cc2)c1 [Example 20, N-(Mesitylsulfonyl)-O-(3′-{[(propylamino)carbonyl]amino}-1,1′-biphenyl-4-yl)-L-serine]
